# Key:
# KRasG12C [1] = molecular target: T1, KRasG12C (Homo sapiens, UniProt P01116, G12C); assay: KRasG12C functional assay (HTRF nucleotide exchange / Raf RBD binding); type: biochemical; settings: GDP loaded biotinylated KRasG12C, samples incubated 4 hrs, FRET readout; single experiment or average of two or more
# T1 construct: biotin (biotinylated); made in house
# Experimental: KRasG12C Functional Assay
# All enzyme and substrate solutions were prepared in assay buffer containing 20 mM HEPES (pH 7.5), 5 mM MgCl2, 150 mM NaCl, and 0.01% Tween 20. […] In a separate mix 20 nM GST-Raf Ras binding domain (GST-Raf RBD, purified in house) and 4 μg/ml anti-GST XL665 antibody (Cisbio) was prepared in assay buffer containing 50 mM Potassium Fluoride and 0.05 mg/ml BSA and equilibrated for 4 hours before adding 0.6 μM Guanosine 5′-[γ-thio]triphosphate (GTPγS, Sigma) and 0.08 μM SOS (purified in house). 5 μl of the GST-RAF RBD mix was then dispensed into each well of the assay plate. […] This is detected simultaneously via the specific binding interaction between active GTPγS KRas^G12C with GST-Raf RBD which brings the europium and XL665 into close proximity enabling an increased FRET signal to be detected on a Pherastar (BMG) plate reader equipped with the HTRF filter module. […] IC50 values were calculated from normalised dose-response response FRET data curve fitted in Genedata screener (Basel, Switzerland).
# KRasG12C [2] = molecular target: T1, KRasG12C; assay: KRasG12C Mass Spectrometry adducting assay; type: binding; settings: 10 μM test compound, 4 μM KRasG12C, 4 hours reaction; single experiment or average of two or more
# Experimental: KRasG12C Mass Spectrometry Adducting Assay
# Enzyme solutions were prepared in assay buffer containing 20 mM HEPES (pH 7.5), 5 mM MgCl2, and 150 mM NaCl. 4 μM GDP loaded biotinylated KRas^G12C was prepared in assay buffer and 50 μl added into each well of a 96 well polypropylene assay plate (Greiner, #651201) containing 500 nl of 1 mM test compounds (final concentration 10 μM), this was allowed to react for 4 hours before the addition of 50 μl 1% Formic acid to quench the reaction. The plate was sealed before reading on a Xevo G2 QTOF (Waters) and Acquity LC system (Waters). 10 μl of sample was injected onto a Xbridge BEH300; C4; 3.5 um; 2.1×50 mm column (Waters) running a 3 minute gradient. Blank samples were run in between each test sample.
# Data was analysed in Mass Lynx software (Waters), the Total ion count (TIC) trace was used and the eluted protein peak data combined. Using the combined spectrum the data was deconvoluted using MaxEnt1 method. The peak area for apo-protein KRas^G12C (APO) and KRAS+relative cmpd mass (adduct) were measured, and a percentage adduct was calculated using the following calculation: Percent adduct=100*(area of adduct peak/(sum of APO+adduct peaks)
# [3] = In vivo studies: oral bioavailability and clearance; settings: rat
# [4] = Incubations with hepatic systems (turnover); type: in vitro ADME; settings: result in words
# [5] = Reactivity to glutathione (co-incubation with glutathione in buffer)
IC50 (KRasG12C [1]) [nM],KRasG12C M.S. Binding Mean adduct % (KRasG12C [2]) [%],Compound,further results
62,96,"C=CC(=O)N1C[C@@H]2COc3cnc4c(C)c(-c5c(O)cccc5F)c(Cl)cc4c3N2C[C@H]1C (single isomer, unassigned) [Compound 40]","bioavailability ([3]; po, species not given, read-out: F value (oral bioavailability)): 43%"
5,100,"C=CC(=O)N1C[C@@H]2C(=O)N(C)c3cnc4c(F)c(-c5c(O)cccc5F)c(Cl)cc4c3N2C[C@H]1C (single isomer, unassigned) [Example 22]",turnover in incubations with hepatic systems [4]: low turnover; half-life [5]: 15.5 h
9500,15,"C=CC(=O)N1C[C@@H]2C(=O)N(C)c3cnc4c(F)c(-c5c(O)cccc5F)c(Cl)cc4c3N2C[C@H]1C (single isomer, unassigned) [Example 21]",–
11400,4,"C=CC(=O)N1CCN2c3c(cnc4cc(-c5c(C)ccc6[nH]c(=O)n(C)c56)c(Cl)cc34)OC[C@H]2C1 (single isomer, unassigned) [Compound 68]",–
41,95,"C=CC(=O)N1CCN2c3c(cnc4c(F)c(-c5c(C)ccc6c5C(=O)NC6)c(Cl)cc34)OC[C@H]2C1 (single isomer, unassigned) [Compound 86]",–
257,77,"C=CC(=O)N1CCN2c3c(cnc4cc(-c5c(O)cccc5F)c(Cl)c(OC)c34)OC[C@H]2C1 [Compound 83, 1-[(4aR)-11-Chloro-10-(2-fluoro-6-hydroxyphenyl)-12-methoxy-1,2,4a,5-tetrahydropyrazino[1′,2′:4,5][1,4]oxazino[2,3-c]quinolin-3(4H)-yl]prop-2-en-1-one]",–
231,75,"C=CC(=O)N1CCN2c3c(cnc4cc(-c5c(O)cccc5F)c(Cl)cc34)N(CCN(C)C)C[C@H]2C1 [Example 12, 1-((4aS)-11-Chloro-6-(2-(dimethylamino)ethyl)-10-(2-fluoro-6-hydroxyphenyl)-1,2,4,4a,5,6-hexahydro-3H-pyrazino[1′,2′:4,5]pyrazino[2,3-c]quinolin-3-yl)prop-2-en-1-one]",–
47,95,"C=CC(=O)N1CCN2c3c(cnc4cc(-c5c(C)ccc6[nH]cnc56)c(Cl)cc34)OC[C@H]2C1 (single isomer, unassigned) [Compound 65]",–
26,96,"C=CC(=O)N1CCN2c3c(cnc4cc(-c5c(F)ccc6cc[nH]c(=O)c56)c(Cl)cc34)OC[C@H]2C1 (single isomer, unassigned) [Compound 45]",–
47,94,"C=CC(=O)N1CCN2c3c(cnc4cc(-c5c(C)ccc6[nH]c(=O)[nH]c56)c(Cl)cc34)OC[C@H]2C1 (single isomer, unassigned) [Compound 71]",–
28,60,"C=CC(=O)N1CCN2c3c(cnc4c(F)c(-c5c(C)ccc6[nH]cnc56)c(Cl)cc34)OC[C@H]2C1 (single isomer, unassigned) [Compound 77]",–
96,96,"C#Cc1cc2c3c(cnc2cc1-c1c(C)ccc2[nH]ncc12)OC[C@H]1CN(C(=O)C=C)CCN31 (single isomer, unassigned) [Compound 75]",–
341,74,"CN(C)C/C=C/C(=O)N1CCN2c3c(cnc4cc(-c5c(O)cccc5F)c(Cl)cc34)OC[C@H]2C1 [Example 9, (2E)-1-[(4aR)-11-Chloro-10-(2-fluoro-6-hydroxyphenyl)-1,2,4a,5-tetrahydropyrazino[1′,2′:4,5][1,4]oxazino[2,3-c]quinolin-3(4H)-yl]-4-(dimethylamino)but-2-en-1-one]",–

Compound,IC50 (KRasG12C [1]) [nM],KRasG12C M.S. Binding Mean adduct % (KRasG12C [2]) [%],further results
"C=CC(=O)N1CCN2c3c(cnc4c(C)c(-c5c(O)cccc5F)c(Cl)cc34)OC[C@H]2C1 (single isomer, unassigned) [Compound 39]",97,94,"clearance [3]: 6 mL/min/kg; F (oral bioavailability), in words ([3]; result in words): complete"
"C=CC(=O)N1CCN2c3c(cnc4c(OC)c(-c5c(O)cccc5F)c(Cl)cc34)OC[C@H]2C1 (single isomer, unassigned) [Compound 24]",70,96,–
"C=CC(=O)N1CCN2c3c(cnc4c(C)c(-c5c(O)cccc5F)c(Cl)cc34)OC[C@H]2C1 (single isomer, unassigned) [Compound 38]",9700,7,–
"C=CC(=O)N1CCN2c3c(cnc4c(F)c(-c5c(O)cccc5F)c(Cl)cc34)N(C)C(=O)[C@H]2C1 (single isomer, unassigned) [Example 17, 3-acryloyl-11-chloro-9-fluoro-10-(2-fluoro-6-hydroxyphenyl)-6-methyl-2,3,4,4a-tetrahydro-1H-pyrazino[1′,2′:4,5]pyrazino[2,3-c]quinolin-5(6H)-one]",18,100,turnover in incubations with hepatic systems [4]: low turnover; half-life [5]: 9.75 h
"C=CC(=O)N1CCN2c3c(cnc4cc(-c5c(O)cccc5F)c(Cl)cc34)OC[C@H]2C1 (single isomer, unassigned) [Example 2]",281,87,–

# From US10597405B2, “Chemical compounds” (ASTRAZENECA AB, priority 2017, dated 2020)
